Experimental data as given in US5837548A, “Treatment of inflammation by inhibition of lipid body formation” (Beth Israel Hospital, priority 1995, dated 1998).

Experiments:
Format in all cases: cell-based
human neutrophils = experiment: cis-unsaturated fatty acid-induced lipid body formation in human neutrophils (osmium staining, light microscopy enumeration); conditions: human neutrophils
Method: Neutrophils were purified from fresh human blood obtained by venipuncture from healthy adult volunteers and collected into acidified citrate. After addition of 6% dextran 70 (McGaw, Irvine, Calif.), RBCs were allowed to sediment for 1 hour at room temperature. The leukocyte-rich supernatant was overlaid onto an equal volume of Ficoll-Paque gradient (Piscataway, N.J.), and centrifuged at 400×g for 20 min. […] Residual RBCs were lysed with hypotonic saline.
Human leukocytes (10^6 cells/mL) were incubated with varying concentrations of arachidonic acid (AA), oleic acid (OA) or vehicle at 37° C. in a 5% CO2 /95% O2 atmosphere, and after 1 hour leukocytes (10^5 cells per slide) were cytocentrifuged (550 rpm, 5 min) onto glass slides. During inhibitory studies, neutrophils were pretreated for 1 hour with varying concentrations of enzyme inhibitors, protein synthesis inhibitors, or vehicle as indicated. When PKC inhibitors were used, the pre-incubation time was reduced to 30 minutes to avoid toxic effects to the cells. […] Stock solutions for A23187, D609, U-73122, and indomethacin were prepared in DMSO and stored at -20° C. Aliquots were diluted in Ca^++ /Mg^++ fee HBSS to the indicated concentration immediately prior to use. […] The morphology of fixed cells was observed, and lipid bodies were enumerated with phase contrast microscopy and a 100× objective lens in 50 consecutively scanned leukocytes.
Results were expressed as mean±SEM and were analyzed statistically by means of the analysis of variance followed by the Newman-Keuls-Student test with the level of significance set at p<0.05. Correlation coefficients were determined by linear regression, and correlation analysis was performed by Fisher's r to z transformation with the level of significance set at p<0.05.
^1 Neutrophils (10^6 /ml) were pretreated with protein kinase C
(actinomycin D, cycloheximide) for 30 min or with phospholipase C
inhibitors (D609, U73122) for 1 h. The cells were then stimulated with
vehicle, arachidonic acid (15 μM), or oleic acid (10 μM), for 1 h.
Results are mean ± SEM from fifty consecutively counted neutrophils.
Statistically significant differences between the agonist alone and the
inhibitor are represented by an asterisk(*). Percent inhibition has been
calculated after subtracting out the basal number of lipid bodies/PMN
present prior to stimulation.
^1 Neutrophils (10^6 /ml) were pretreated with the NSAID or
vehicle for 1 h then stimulated with vehicle, arachidonic acid, or oleic
± SEM from fifty consecutively counted neutrophils. Statistically
significant differences between the agonist alone and the NSAID are
represented by an asterisk (*). Percent inhibition has been calculated
after subtracting out the basal number of lipid bodies/PMN present prior

[1] = test system: human eosinophils (LTC4 production); experiment: LTC4 production by human eosinophils (priming, A23187 stimulation, ELISA)
Method: (§1) FIG. 2A is a graph illustrating the effect of arachidonic acid (AA) and oleic acid (OA) on induction of lipid body formation (black) and priming effects (white) for enhanced leukotriene C4 (LTC4) by human eosinophils. Eosinophils (10^6 /mL) were stimulated for one hour with arachidonic acid (3.7, 7.5, 15 μM) or oleic acid (2.5, 5, 10 μM). Lipid bodies were enumerated using light microscopy following osmium staining. The concentration of LTC4 in the supernatant was measured by ELISA after incubation with A23187 (0.5 μM) for 15 minutes at 37° C. Data are expressed as mean from 2 independent assays performed in duplicate.
(§2) FIG. 5B is a graph showing that aspirin inhibits cis-unsaturated fatty acid-induced priming for enhanced leukotriene C4 (LTC4) production in human eosinophils. Striped and open columns represent vehicle treated cells and aspirin treated cells, respectively. Cells (10^6 /mL) were pretreated with aspirin (10 μg/mL) or vehicle for one hour and then stimulated with OA (10 μM) or vehicle for one hour. The concentration of LTC4 in the supernatant was measured by ELISA after incubation with A23187 (0.5 μM) for 15 minutes at 37° C. Data are expressed as mean from 2-4 independent assays performed in duplicate. The statistically significant difference between the vehicle alone and the agonist is represented by a cross. Statistically significant differences due to pretreatment with aspirin are indicated by an asterisk.
(§3) After the incubation time, a sample was taken for lipid body enumeration and the cells were washed in Ca^++ /Mg^++ free HBSS. Leukocytes were resuspended in 1 mL of HBSS containing Ca^++ /Mg^++ and then stimulated with A23187 (0.5 μM) for 15 min. The reaction was stopped on ice, and the samples were centrifuged at 1500 rpm for 10 min at 4° C. The concentrations of PGE2, LTB4, and LTC4 in the supernatants were assayed by ELISA according to the manufacturer's instructions (Cayman, Ann Arbor, Mich.).

[2] = test system: human neutrophils (PGE2 production); experiment: PGE2 production by human neutrophils (priming, A23187 stimulation, ELISA)
Method: FIG. 1B is a graph showing the effect of arachidonic acid (AA) and oleic acid (OA) on lipid body induction (black) and priming for enhanced prostaglandin E2 (PGE2) production (white) by human neutrophils. Neutrophils (10^6 /mL) were stimulated for one hour with arachidonic acid (3.7, 7.5, 15 μM) or oleic acid (2.5, 5, 10 μM). Lipid bodies were enumerated using light microscopy following osmium staining. The concentration of PGE2 in the supernatant was measured by ELISA after incubation with A23187 (0.5 μM) for 15 minutes at 37° C. Data are expressed as mean from 2-3 independent assays performed in duplicate.
as §3

[3] = test system: human neutrophils (LTB4 production); experiment: LTB4 production by human neutrophils (priming, A23187 stimulation, ELISA)
Method: as §1, with “FIG. 1A” for “FIG. 2A”, “leukotriene B4 (LTB4)” for “leukotriene C4 (LTC4)”, “human neutrophils. Neutrophils” for “human eosinophils. Eosinophils”, “of LTB4” for “of LTC4”, “from 2-3” for “from 2”
as §2, with “5A” for “5B”, “B4 (LTB4)” for “C4 (LTC4)”, “neutrophils.” for “eosinophils.”, “LTB4” for “LTC4”
as §3

[4] = Homo sapiens, Eosinophil, 1 h, read-out: fold increase in production of LTC4
[5] = Homo sapiens, Neutrophil, 1 h, read-out: fold increase in production of PGE2
[6] = Homo sapiens, Neutrophil, 1 h, read-out: fold increase in production of LTB4
[7] = staurosporine 0.1-1.0 μM, aspirin 10 μg/mL, others as in Tables 1 and 2
[8] = cells not pre-stimulated with cis-unsaturated fatty acids

Compound	increase in number of lipid bodies (human neutrophils)	fold induction at 15 µM [1, 4]	increase in production of LTC4 ([1]; eosinophils)	fold induction at 15 µM [2, 5]	increase in production of PGE2 ([2]; neutrophils)	fold induction at 15 µM [3, 6]	increase in production of LTB4 ([3]; neutrophils)	inhibition of arachidonic acid-induced lipid body formation (human neutrophils; [7])	inhibition of oleic acid-induced lipid body formation (human neutrophils; [7])	inhibition of calcium ionophore-induced LTC4 production [1, 8]	inhibition of oleic acid-induced priming for enhanced LTC4 production ([1]; eosinophils, 10 μg/mL, OA 10 μM)	inhibition of PGE2 production ([2]; neutrophils, 10 μg/mL pretreatment)	inhibition of calcium ionophore-induced LTB4 production [3, 8]	inhibition of oleic acid-induced priming for enhanced LTB4 production ([3]; neutrophils, 10 μg/mL, OA 10 μM)	fold induction at 10 µM [1, 4]	correlation (r) between number of lipid bodies and priming for enhanced LTC4 release ([1]; oleic acid, leukocytes, p<0.05)	fold induction at 10 µM [2, 5]	correlation (r) between number of lipid bodies and priming for enhanced PGE2 release ([2]; oleic acid, leukocytes, p<0.01)	fold induction at 10 µM [3, 6]	correlation (r) between number of lipid bodies and priming for enhanced LTB4 release ([3]; oleic acid, leukocytes, p<0.05)
CCCCC/C=C\C/C=C\C/C=C\C/C=C\CCCC(=O)O [arachidonic acid]	dose-dependent increase in the number of lipid bodies	1.4	dose-dependent increase in production	3.5	dose-dependent increase in production	2.3	dose-dependent increase in production													
CC(=O)Oc1ccccc1C(=O)O [aspirin]								significantly inhibited	significantly inhibited	failed to inhibit	significantly inhibited	inhibited PGE2 production	failed to inhibit	significantly inhibited						
CCCCCCCC/C=C\CCCCCCCC(=O)O [oleic acid]	dose-dependent increase in the number of lipid bodies		dose-dependent increase in production		dose-dependent increase in production		dose-dependent increase in production								1.7	0.95	2	0.99	2	0.96
